In brackets after ≈: the same amount, converted by molar mass. Entries after “also recorded” stand apart in the source; their conditions may differ.
Experiments:
[1] = system: Human A549 xenograft; test: In vivo efficacy study, A549 xenograft model; design: species or system BALB/c athymic mice; details: for Tumor volume: n = 6, mean (SD on next line); for Relative tumor volume: RTV = Vt/V0, n = 6, mean ± SD
Description: Pathogen-free, 4–6 week-old, female BALB/c athymic mice (Shanghai SCXK Laboratory Animal Technology Co. Ltd., Shanghai, China) were housed under sterile conditions. Human A549 xenograft was established in the right flanks of athymic mice according to the protocol of the National Cancer Institute. When the tumor reached a volume of 100 mm^3, the mice were randomly assigned into control (n = 6 per group) and treatment groups (n = 6 per group). Control group were given lactate buffer, and treatment groups were iv administered with tested compounds. The size of tumor was measured individually on the indicated days. Tumor volume (V) was calculated as V = (length × width^2)/2. The individual relative tumor volume (RTV) was calculated as follows: RTV = Vt/V0, where Vt represented the last tumor size measurement and V0 represented the pre-dosing tumor size measurement. The animal experimental protocols were approved by the Animal Ethics Committee of School of Pharmacy, Fudan University and the mice were treated in accordance with international animal ethics guidelines.

[2] = system: HCT116 human colon cancer cells; test: Cancer cell proliferation inhibition (MTT assay), HCT116; type: cell-based; details: 72 h incubation, mean ± SD of at least three independent experiments
Procedure: The following cell lines were used for the screening stage, obtained from American Type Culture Collection (ATCC, Manassas, VA, USA); HCT116 human colon cancer cells and A549 human lung carcinoma cell lines were cultured in RPMI 1640 medium supplemented with 10% FBS. Cell cultures were maintained in a humidified atmosphere of 5% CO2 at 37 °C. Cells were seeded at 2000 cells per well in 96-well plates in a volume of 200 μL per well. The test compounds were dissolved in DMSO and diluted with culture medium to different concentrations. After seeding for 24 h, the medium was removed, and […] of the test compound solution was added in duplicates and incubation continued for 72 h at 37 °C in a humidified atmosphere containing 5% CO2. Control cells were treated with vehicle alone. During the last 4 h of incubation, the cells were exposed to tetrazolium dye (MTT) solution (5 mg/mL, […] per well). The generated formazan crystals were dissolved in […] of dimethyl sulfoxide (DMSO), and the absorbance was read spectrophotometrically at 570 nm using an enzyme-linked immunosorbent assay plate reader. The data was calculated using Graph Pad Prism version 5.0 (GraphPad Softwrae, La Jolla, CA, USA). The IC50s were fitted using a non-linear regression model with a sigmoidal dose response.

[3] = Liver microsomes metabolic stability, human
[4] = Liver microsomes metabolic stability, rat
[5] = Solubility of 1a; type: physicochemical
[6] = Liver microsomes metabolic stability, mouse

In the case of `CC[C@H](C)[C@@H]([C@@H](CC(=O)N1CCC[C@H]1[C@H](OC)[C@@H](C)C(=O)N1CC(c2ccccc2)C1)OC)N(C)C(=O)[C@@H](NC(=O)C(C(C)C)N(C)C)C(C)C` (stereo in doubt) [1a, (S)-2-((R)-2-(Dimethylamino)-3-methylbutanamido)-N-((3R,4S,5S)-3-methoxy-1-((S)-2-((1R,2R)-1-methoxy-2-methyl-3-oxo-3-(3-phenylazetidin-1-yl)propyl)pyrrolidin-1-yl)-5-methyl-1-oxoheptan-4-yl)-N,3-dimethylbutanamide], the Tumor volume ([1]; 1 mg/kg iv once a day, day 1) is reported as 149.56 mm3, the Relative tumor volume ([1]; 1 mg/kg iv once a day, day 4) is reported as 1.27 ± 0.37 and the Tumor volume ([1]; 1 mg/kg iv once a day, day 4) is reported as 185.88 mm3. The Relative tumor volume ([1]; 1 mg/kg iv once a day, day 7) was 1.65 ± 0.57, the Tumor volume ([1]; 1 mg/kg iv once a day, day 7) was 248.97 mm3 and the Relative tumor volume ([1]; 1 mg/kg iv once a day, day 10) was 2.29 ± 0.76. The Tumor volume ([1]; 1 mg/kg iv once a day, day 10) was 341.75 mm3, the Relative tumor volume ([1]; 1 mg/kg iv once a day, day 13) was 2.69 ± 0.9 and the Tumor volume ([1]; 1 mg/kg iv once a day, day 13) was 395.43 mm3. For the same compound, the Relative tumor volume ([1]; 1 mg/kg iv once a day, day 16) was 3.62 ± 1.05, the Tumor volume ([1]; 1 mg/kg iv once a day, day 16) was 530.82 mm3 and the Relative tumor volume ([1]; 1 mg/kg iv once a day, day 19) was 3.86 ± 1.34. The Tumor volume ([1]; 1 mg/kg iv once a day, day 19) was 563.52 mm3, the Relative tumor volume ([1]; 1 mg/kg iv once a day, day 22) was 4.69 ± 1.74 and the Tumor volume ([1]; 1 mg/kg iv once a day, day 22) was 662.64 mm3. For the same compound, the Relative tumor volume ([1]; 2 mg/kg iv once a day, day 4) was 1.3 ± 0.22, the Tumor volume ([1]; 2 mg/kg iv once a day, day 4) was 214.97 mm3 and the Relative tumor volume ([1]; 2 mg/kg iv once a day, day 7) was 1.8 ± 0.31. It also gave a Tumor volume ([1]; 2 mg/kg iv once a day, day 7) of 287.02 mm3, a Relative tumor volume ([1]; 2 mg/kg iv once a day, day 10) of 2.44 ± 0.46 and a Tumor volume ([1]; 2 mg/kg iv once a day, day 10) of 381.31 mm3. For the same compound, the Relative tumor volume ([1]; 2 mg/kg iv once a day, day 13) was 3.22 ± 0.6, the Tumor volume ([1]; 2 mg/kg iv once a day, day 13) was 508.66 mm3 and the Relative tumor volume ([1]; 2 mg/kg iv once a day, day 16) was 4.34 ± 0.97. It also gave a Tumor volume ([1]; 2 mg/kg iv once a day, day 16) of 682.39 mm3, a Relative tumor volume ([1]; 2 mg/kg iv once a day, day 19) of 5.15 ± 1.13 and a Tumor volume ([1]; 2 mg/kg iv once a day, day 19) of 813.25 mm3. The Relative tumor volume ([1]; 2 mg/kg iv once a day, day 22) was 5.5 ± 2.15, the Tumor volume ([1]; 2 mg/kg iv once a day, day 22) was 862.75 mm3 and the Tumor volume ([1]; 5 mg/kg iv once a day, day 1) was 205.7 mm3. For the same compound, the Relative tumor volume ([1]; 5 mg/kg iv once a day, day 4) was 1.37 ± 0.34, the Tumor volume ([1]; 5 mg/kg iv once a day, day 4) was 266.39 mm3 and the Relative tumor volume ([1]; 5 mg/kg iv once a day, day 7) was 1.53 ± 0.41. The Tumor volume ([1]; 5 mg/kg iv once a day, day 7) was 287.02 mm3, the Relative tumor volume ([1]; 5 mg/kg iv once a day, day 10) was 2.05 ± 0.62 and the Tumor volume ([1]; 5 mg/kg iv once a day, day 10) was 380.17 mm3. For the same compound, the Relative tumor volume ([1]; 5 mg/kg iv once a day, day 13) was 2.7 ± 0.88, the Tumor volume ([1]; 5 mg/kg iv once a day, day 13) was 487.47 mm3 and the Relative tumor volume ([1]; 5 mg/kg iv once a day, day 16) was 2.97 ± 0.91. It also gave a Tumor volume ([1]; 5 mg/kg iv once a day, day 16) of 554.26 mm3, a Relative tumor volume ([1]; 5 mg/kg iv once a day, day 19) of 3.51 ± 0.82 and a Tumor volume ([1]; 5 mg/kg iv once a day, day 19) of 668.46 mm3. For the same compound, the Relative tumor volume ([1]; 5 mg/kg iv once a day, day 22) was 4.19 ± 1.41, the Tumor volume ([1]; 5 mg/kg iv once a day, day 22) was 789.59 mm3 and the “toxicity and weight loss” value ([1]; 1, 2 and 5 mg/kg/day iv for 22 days, A549 xenograft mice) was “no overt toxicity and weight-loss; also recorded: did not show any severe toxicity”. The IC50 [2] was 2.1 ± 0.4 nM, the Clint ([3]; Human, apparent intrinsic clearance, 1 μM) was 92.93 mL/min/kg and the half-life at 1 μM ([3]; human, microsomes) was 18.7 min. The Clint ([4]; Rat, apparent intrinsic clearance, 1 μM) was 262.12 mL/min/kg, the half-life at 1 μM ([4]; rat, microsomes) was 9.48 min and the solubility ([5]; distilled water, pH 7.4, water) was 346 µg/mL (≈ 485 µM). For the same compound, the “solubility (in words)” value ([5]; limited exploration of higher in vivo dosage) was “poor solubility”, the T1/2 ([6]; Mouse liver microsomes, metabolic stability, 1 μM) was “less than 2 min” and the Clint ([6]; Mouse, apparent intrinsic clearance, 1 μM) was 2981.16 mL/min/kg. The half-life at 1 μM ([6]; mouse, microsomes) was 1.83 min.
